Experimental data reported in BindingDB's records for patent US20250179094 (Medinno Pharmaceutical Technology (Zhuhai) Co., 2025).

Target: T1, TGF-beta receptor type-1 (Homo sapiens, UniProt P36897)
T1 sequence (P36897 whole entry): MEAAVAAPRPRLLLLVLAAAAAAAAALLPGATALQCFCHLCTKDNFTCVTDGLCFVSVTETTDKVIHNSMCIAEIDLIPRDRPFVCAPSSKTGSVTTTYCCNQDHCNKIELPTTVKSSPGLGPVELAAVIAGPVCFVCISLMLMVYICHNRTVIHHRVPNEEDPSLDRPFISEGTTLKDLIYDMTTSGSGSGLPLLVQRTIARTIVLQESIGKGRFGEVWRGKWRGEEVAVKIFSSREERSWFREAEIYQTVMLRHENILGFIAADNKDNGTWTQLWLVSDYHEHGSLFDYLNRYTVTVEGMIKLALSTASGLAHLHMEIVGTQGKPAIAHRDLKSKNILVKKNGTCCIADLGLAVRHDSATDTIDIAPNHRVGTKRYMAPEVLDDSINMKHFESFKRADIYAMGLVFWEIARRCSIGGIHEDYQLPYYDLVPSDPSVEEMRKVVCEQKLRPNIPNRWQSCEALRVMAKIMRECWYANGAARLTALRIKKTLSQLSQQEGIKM
Experiment: Kinase Activity Assay
Description: The principle of the activity assay was that TGFβR1 phosphorylates the substrate TGFβR1tide, consuming ATP in the process. […] The specific experimental steps were as follows. Compounds were diluted 4-fold in DMSO in a dilution plate, with the final starting concentration of the compounds being 10 μM, across 10 concentration gradient points. The compounds were then further diluted 50-fold into the kinase reaction buffer and incubated on a shaker for 20 minutes. Kinase was formulated with an enzyme reaction buffer. 2 μl kinase was added to each well of the reaction plate. 1 μl of the compound diluted in buffer was added to each well, and then the plate was sealed with a sealing membrane and centrifuged at 1000 g for 30 seconds, leaving it at room temperature for 10 minutes. Solutions of TGFβR1tide and ATP were prepared with the kinase reaction buffer, and 2 μL of the TGFβR1tide/ATP solution was added to the reaction plate. The plate was sealed with a sealing film and centrifuged at 1000 g for 30 seconds. It was allowed to react at room temperature for 60 minutes. Subsequently, 4 μL of ADP-Glo was transferred to a 384-well reaction plate and centrifuged at 1000 rpm/min for 1 minute, followed by incubation at 25° C. for 40 minutes. Then, 8 μL of Detection solution was transferred to the 384-well reaction plate and centrifuged at 1000 rpm/min for 1 minute, after which it was incubated at 25° C. for 40 minutes. The RLU (Relative Luminescence Unit) signal was read using a BMG microplate reader, which was used to characterize the degree of kinase activity.

Row | Structure (SMILES) | IC50 [nM]
1 | Cc1cccc(-c2nc[nH]c2-c2ccnc(-c3nc4c([nH]3)CN(C(=O)N3CCCC3)C4)c2)n1 [US20250179094, Compound 6] | 22
2 | Cc1cccc(-c2nc[nH]c2-c2ccnc(-c3nc4c([nH]3)CN(C(=O)N3CCN(C)CC3)C4)c2)n1 [US20250179094, Compound 7] | 1.1
3 | Cc1cccc(-c2nc3n(c2-c2ccnc(-c4nc5c([nH]4)CN(C(=O)N4CC[C@@H](O)C4)C5)c2)CCC3)n1 [US20250179094, Compound 15] | 16
4 | Cc1cccc(-c2nn(C(C)C)cc2-c2ccnc(-c3nc4c([nH]3)CN(C(=O)N3CCN(C)CC3)C4)c2)n1 [US20250179094, Compound 22] | 7.5
5 | Cc1cccc(-c2nn(Cc3ccccc3)cc2-c2ccnc(-c3nc4c([nH]3)CN(C(=O)N3CCN(C)CC3)C4)c2)n1 [US20250179094, Compound 23] | 0.9
6 | Cc1cccc(-c2nc3n(c2-c2ccnc(-c4nc5c([nH]4)CN(C(=O)N4CCC(O)CC4)C5)c2)CCC3)n1 [US20250179094, Compound 27] | 4.3
7 | Cc1cccc(-c2nc3n(c2-c2ccnc(-c4nc5c([nH]4)CN(C(=O)N4CCOCC4)C5)c2)CCC3)n1 [US20250179094, Compound 33] | 1.7
8 | Cc1cccc(-c2nc3n(c2-c2ccnc(-c4nc5c([nH]4)CN(C(=O)N4CC[C@@H](N(C)C)C4)C5)c2)CCC3)n1 [US20250179094, Compound 34] | 1.9
9 | Cc1cccc(-c2nn(C)cc2-c2ccnc(-c3nc4c([nH]3)CN(C(=O)N3CCN(C)CC3)C4)c2)n1 [US20250179094, Compound 37] | 6.5

Next, values leading:

Row | IC50 [nM] | Structure (SMILES)
10 | 4.4 | CCn1cc(-c2ccnc(-c3nc4c([nH]3)CN(C(=O)N3CCN(C)CC3)C4)c2)c(-c2cccc(C)n2)n1 [US20250179094, Compound 38]
11 | 1.6 | Cc1cccc(-c2nn(Cc3cccc(F)c3)cc2-c2ccnc(-c3nc4c([nH]3)CN(C(=O)N3CCN(C)CC3)C4)c2)n1 [US20250179094, Compound 40]
12 | 2.7 | Cc1cccc(-c2nn(CC3CC3)cc2-c2ccnc(-c3nc4c([nH]3)CN(C(=O)N3CCN(C)CC3)C4)c2)n1 [US20250179094, Compound 43]
13 | 23 | Cc1cccc(-c2nn(Cc3ccccc3)cc2-c2ccnc(-c3nc4c([nH]3)CN(C(=O)C3CC(O)C3)C4)c2)n1 (centres undefined) [US20250179094, Compound 56]
14 | 9.9 | Cc1cccc(-c2nn(Cc3cccc(F)c3)cc2-c2ccnc(-c3nc4c([nH]3)CN(C(=O)C3CC(O)C3)C4)c2)n1 (centres undefined) [US20250179094, Compound 57]
15 | 6.9 | Cc1cccc(-c2nc3n(c2-c2ccnc(-c4nc5c([nH]4)CN(C(=O)N4CCN(C)CC4)C5)c2)CCOC3)n1 [US20250179094, Compound 61]
16 | 0.9 | Cc1cccc(-c2nn3c(c2-c2ccnc(-c4nc5c([nH]4)CN(C(=O)N4CCN(C)CC4)C5)c2)CCC3)n1 [US20250179094, Compound 62]
17 | 2.3 | Cc1cccc(-c2nn3c(c2-c2ccnc(-c4nc5c([nH]4)CN(C(=O)N4CCC(O)CC4)C5)c2)CCC3)n1 [US20250179094, Compound 70]
18 | 0.67 | Cc1cccc(-c2nn3c(c2-c2ccnc(-c4nc5c([nH]4)CN(C(=O)N4CCOCC4)C5)c2)CCC3)n1 [US20250179094, Compound 71]
19 | 2 | Cc1cccc(-c2nn3c(c2-c2ccnc(-c4nc5c([nH]4)CN(C(=O)N4CCCC4)C5)c2)CCC3)n1 [US20250179094, Compound 72]
